Experimental data taken from patent publication US10377753B2, “Substituted 4-azaindoles and their use as GluN2B receptor modulators” (Janssen Pharmaceutica NV, priority 2015, dated 2019).
Structures can show the parent of a compound that is named as a salt.

The compounds below were run against cloned human NR1/NR2B ion channels (Homo sapiens (Human), UniProt Q05586+Q13224) (assay: HNR2BC: effects of test articles on cloned human NR1/NR2B ion channels expressed in mammalian cells (FLIPR calcium flux)). Conditions: cloned human NR1/NR2B, Table 5.
Format: cell-based
Method in brief: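 Compounds were added to dye-loaded cells for 5 min with fluorescence monitored for agonism, followed by co-agonists (glutamate ~EC80, glycine 10 μM saturating) for 5 min. Cells stably expressed inducible human NR1/NR2B, and the buffer was pH 7.4. The FLIPR Ca2+ flux signal was normalized against control wells.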

cloned human NR1/NR2B ion channels, sequence (Q13224 27-1484, other chains not shown): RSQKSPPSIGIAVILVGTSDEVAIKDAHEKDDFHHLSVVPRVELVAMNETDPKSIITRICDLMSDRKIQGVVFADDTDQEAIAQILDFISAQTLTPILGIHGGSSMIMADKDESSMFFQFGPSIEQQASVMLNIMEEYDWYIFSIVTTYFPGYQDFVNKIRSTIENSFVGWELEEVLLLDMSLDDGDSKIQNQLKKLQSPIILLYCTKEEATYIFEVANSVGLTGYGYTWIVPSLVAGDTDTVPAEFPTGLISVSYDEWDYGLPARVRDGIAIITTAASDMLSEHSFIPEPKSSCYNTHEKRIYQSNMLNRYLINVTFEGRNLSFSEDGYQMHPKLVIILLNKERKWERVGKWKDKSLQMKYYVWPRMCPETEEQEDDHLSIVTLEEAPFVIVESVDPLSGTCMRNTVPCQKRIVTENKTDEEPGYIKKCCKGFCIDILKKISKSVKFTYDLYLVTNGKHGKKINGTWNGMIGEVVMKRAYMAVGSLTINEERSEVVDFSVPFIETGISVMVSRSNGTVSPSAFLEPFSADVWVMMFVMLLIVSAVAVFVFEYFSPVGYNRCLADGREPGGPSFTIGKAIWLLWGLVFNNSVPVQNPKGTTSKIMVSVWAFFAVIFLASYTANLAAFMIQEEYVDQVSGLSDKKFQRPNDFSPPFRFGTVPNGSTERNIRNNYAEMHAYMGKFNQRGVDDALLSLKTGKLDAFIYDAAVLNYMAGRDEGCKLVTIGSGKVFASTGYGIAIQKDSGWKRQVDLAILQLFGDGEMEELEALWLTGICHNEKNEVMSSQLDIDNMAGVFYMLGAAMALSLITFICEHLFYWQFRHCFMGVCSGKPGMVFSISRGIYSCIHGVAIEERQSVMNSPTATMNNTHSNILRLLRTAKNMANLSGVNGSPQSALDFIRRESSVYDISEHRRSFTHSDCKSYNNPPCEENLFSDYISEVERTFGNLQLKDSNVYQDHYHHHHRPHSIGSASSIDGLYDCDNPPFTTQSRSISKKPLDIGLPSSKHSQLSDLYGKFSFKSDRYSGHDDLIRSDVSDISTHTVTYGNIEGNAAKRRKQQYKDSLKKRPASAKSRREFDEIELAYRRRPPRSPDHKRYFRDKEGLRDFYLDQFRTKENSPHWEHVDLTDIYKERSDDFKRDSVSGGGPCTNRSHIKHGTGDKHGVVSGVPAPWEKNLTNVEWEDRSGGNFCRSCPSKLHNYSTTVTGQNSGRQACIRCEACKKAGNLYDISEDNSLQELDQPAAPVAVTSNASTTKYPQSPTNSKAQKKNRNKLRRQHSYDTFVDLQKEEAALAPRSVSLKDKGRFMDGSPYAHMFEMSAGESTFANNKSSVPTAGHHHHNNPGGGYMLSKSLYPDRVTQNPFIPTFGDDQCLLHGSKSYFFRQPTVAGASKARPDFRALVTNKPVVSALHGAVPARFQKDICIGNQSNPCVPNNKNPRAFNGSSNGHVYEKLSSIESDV

Cc1cc(-c2cnc3c(F)cn(CC(=O)N4CC(F)C4)c3c2)ccc1F [Example 307, 1-(3-Fluoroazetidin-1-yl)-2-[3-fluoro-6-(4-fluoro-3-methyl-phenyl)pyrrolo[3,2-b]pyridin-1-yl]ethanone] was tested. Which IC50 did it give?
Its IC50 is 39.8 nM.

Which IC50 does the source give for O=C(Cn1cc(F)c2ncc(-c3ccc(F)cc3)cc21)N1CC(F)C1 [Example 308, 1-(3-Fluoroazetidin-1-yl)-2-[3-fluoro-6-(4-fluorophenyl)pyrrolo[3,2-b]pyridin-1-yl]ethanone] here?
The IC50 was 63.1 nM.

For Cc1csc(-c2cnc3c(F)cn(CC(=O)N4CC(F)C4)c3c2)c1 [Example 309, 1-(3-Fluoroazetidin-1-yl)-2-[3-fluoro-6-(4-methyl-2-thienyl)pyrrolo[3,2-b]pyridin-1-yl]ethanone], which IC50 is on record?
The IC50 was 200 nM.

With O=C(Cn1cc(F)c2ncc(-c3cccc(C(F)F)c3)cc21)N1CC(F)C1 [Example 310, 2-[6-[3-(Difluoromethyl)phenyl]-3-fluoro-pyrrolo[3,2-b]pyridin-1-yl]-1-(3-fluoroazetidin-1-yl)ethanone] as the compound, how does the IC50 read?
Its IC50 is 50.1 nM.

For O=C(Cn1cc(F)c2ncc(-c3ccc(F)c(F)c3)cc21)N1CC(F)C1 [Example 311, 2-[6-(3,4-Difluorophenyl)-3-fluoro-pyrrolo[3,2-b]pyridin-1-yl]-1-(3-fluoroazetidin-1-yl)ethanone], which IC50 is on record?
Its IC50 is 63.1 nM.

O=C(Cn1cc(Cl)c2ncc(-c3ccc(F)c(F)c3F)cc21)N1CCC1 [Example 312, 1-(Azetidin-1-yl)-2-[3-chloro-6-(2,3,4-trifluorophenyl)pyrrolo[3,2-b]pyridin-1-yl]ethanone] was tested. Which IC50 did it give?
Its IC50 is 158 nM.

With Cc1cc(-c2cnc3c(F)cn(CC(=O)N4CCCC4)c3c2)ccc1F [Example 313, 2-[3-Fluoro-6-(4-fluoro-3-methyl-phenyl)pyrrolo[3,2-b]pyridin-1-yl]-1-pyrrolidin-1-yl-ethanone] as the compound, how does the IC50 read?
Its IC50 is 20 nM.

O=C(Cn1cc(F)c2ncc(-c3ccc(F)cc3)cc21)N1CCCC1 [Example 314, 2-[3-Fluoro-6-(4-fluorophenyl)pyrrolo[3,2-b]pyridin-1-yl]-1-pyrrolidin-1-yl-ethanone] was tested. Which IC50 did it give?
The IC50 was 63.1 nM.

O=C(Cn1cc(F)c2ncc(-c3cc(F)c(F)c(F)c3)cc21)N1CCCC1 [Example 315, 2-[3-Fluoro-6-(3,4,5-trifluorophenyl)pyrrolo[3,2-b]pyridin-1-yl]-1-pyrrolidin-1-yl-ethanone] was tested. Which IC50 did it give?
The IC50 was 79.4 nM.

How did the IC50 turn out when Cc1cc(-c2cnc3c(F)cn(CC(=O)C4CC4)c3c2)ccc1F [Example 316, 1-Cyclopropyl-2-[3-fluoro-6-(4-fluoro-3-methyl-phenyl)pyrrolo[3,2-b]pyridin-1-yl]ethanone] was run?
The IC50 was 39.8 nM.

Cc1csc(-c2cnc3c(F)cn(CC(=O)C4CC4)c3c2)c1 [Example 317, 1-Cyclopropyl-2-[3-fluoro-6-(4-methyl-2-thienyl)pyrrolo[3,2-b]pyridin-1-yl]ethanone] was tested. Which IC50 did it give?
Its IC50 is 39.8 nM.

O=C(Cn1cc(F)c2ncc(-c3ccc(Cl)s3)cc21)C1CC1 [Example 318, 2-[6-(5-Chloro-2-thienyl)-3-fluoro-pyrrolo[3,2-b]pyridin-1-yl]-1-cyclopropyl-ethanone] was tested. Which IC50 did it give?
The IC50 was 20 nM.

How did the IC50 turn out when O=C(Cn1cc(F)c2ncc(-c3ccc(F)cc3)cc21)C1CC1 [Example 319, 1-Cyclopropyl-2-[3-fluoro-6-(4-fluorophenyl)pyrrolo[3,2-b]pyridin-1-yl]ethanone] was run?
Its IC50 is 20 nM.

How did the IC50 turn out when O=C(Cn1cc(F)c2ncc(-c3cc(F)c(F)c(F)c3)cc21)C1CC1 [Example 320, 1-Cyclopropyl-2-[3-fluoro-6-(3,4,5-trifluorophenyl)pyrrolo[3,2-b]pyridin-1-yl]ethanone] was run?
Its IC50 is 31.6 nM.

O=C(Cn1cc(F)c2ncc(-c3cccc(C(F)F)c3)cc21)C1CC1 [Example 321, 1-Cyclopropyl-2-[6-[3-(difluoromethyl)phenyl]-3-fluoro-pyrrolo[3,2-b]pyridin-1-yl]ethanone] was tested. Which IC50 did it give?
Its IC50 is 20 nM.

Cc1csc(-c2cnc3c(F)cn(CC(=O)N4CCC4)c3c2)c1 [Example 322, 1-(Azetidin-1-yl)-2-[3-fluoro-6-(4-methyl-2-thienyl)pyrrolo[3,2-b]pyridin-1-yl]ethanone] was tested. Which IC50 did it give?
The IC50 was 20 nM.

O=C(Cn1cc(F)c2ncc(-c3cccc(C(F)F)c3)cc21)N1CCC1 [Example 323, 1-(Azetidin-1-yl)-2-[6-[3-(difluoromethyl)phenyl]-3-fluoro-pyrrolo[3,2-b]pyridin-1-yl]ethanone] was tested. Which IC50 did it give?
Its IC50 is 100 nM.

For Cc1cc(-c2cnc3c(F)cn(CC(=O)C(C)C)c3c2)ccc1F [Example 324, 1-[3-Fluoro-6-(4-fluoro-3-methyl-phenyl)pyrrolo[3,2-b]pyridin-1-yl]-3-methyl-butan-2-one], which IC50 is on record?
The IC50 was 100 nM.

For CCc1cccc(-c2cnc3c(F)cn(CC(=O)C(C)C)c3c2)c1 [Example 325, 1-[6-(3-Ethylphenyl)-3-fluoro-pyrrolo[3,2-b]pyridin-1-yl]-3-methyl-butan-2-one], which IC50 is on record?
The IC50 was 200 nM.

With CC(C)C(=O)Cn1cc(F)c2ncc(-c3ccc(F)c(F)c3)cc21 [Example 326, 1-[6-(3,4-Difluorophenyl)-3-fluoro-pyrrolo[3,2-b]pyridin-1-yl]-3-methyl-butan-2-one] as the compound, how does the IC50 read?
Its IC50 is 200 nM.

With CC(C)C(=O)Cn1cc(F)c2ncc(-c3cccc(F)c3)cc21 [Example 327, 1-[3-Fluoro-6-(3-fluorophenyl)pyrrolo[3,2-b]pyridin-1-yl]-3-methyl-butan-2-one] as the compound, how does the IC50 read?
The IC50 was 63.1 nM.

Which IC50 does the source give for CC(C)C(=O)Cn1cc(F)c2ncc(-c3cccc(C(F)(F)F)c3)cc21 [Example 328, 1-[3-Fluoro-6-[3-(trifluoromethyl)phenyl]pyrrolo[3,2-b]pyridin-1-yl]-3-methyl-butan-2-one] here?
The IC50 was 63.1 nM.

Cc1cccc(-c2cnc3c(F)cn(CC(=O)C(C)C)c3c2)c1 [Example 329, 1-[3-Fluoro-6-(m-tolyl)pyrrolo[3,2-b]pyridin-1-yl]-3-methyl-butan-2-one] was tested. Which IC50 did it give?
The IC50 was 501 nM.

Which IC50 does the source give for CSCn1ccc2ncc(-c3ccc(F)c(C)c3)cc21 [Example 330, 6-(4-Fluoro-3-methyl-phenyl)-1-(methylsulfanylmethyl)pyrrolo[3,2-b]pyridine] here?
The IC50 was 63.1 nM.

With Cc1cc(-c2cnc3ccn(CS(C)(=O)=O)c3c2)ccc1F [Example 332, 6-(4-Fluoro-3-methyl-phenyl)-1-(methylsulfonylmethyl)pyrrolo[3,2-b]pyridine] as the compound, how does the IC50 read?
The IC50 was 1580 nM.

With CCC(=O)Cn1cc(F)c2ncc(-c3ccc(F)cc3)cc21 [Example 333, 1-[3-Fluoro-6-(4-fluorophenyl)pyrrolo[3,2-b]pyridin-1-yl]butan-2-one] as the compound, how does the IC50 read?
The IC50 was 6310 nM.

For CCC(=O)Cn1cc(F)c2ncc(-c3cc(F)c(F)c(F)c3)cc21 [Example 334, 1-[3-Fluoro-6-(3,4,5-trifluorophenyl)pyrrolo[3,2-b]pyridin-1-yl]butan-2-one], which IC50 is on record?
The IC50 was 25.1 nM.

With CCC(=O)Cn1cc(F)c2ncc(-c3ccc(F)c(C)c3)cc21 [Example 335, 1-[3-Fluoro-6-(4-fluoro-3-methyl-phenyl)pyrrolo[3,2-b]pyridin-1-yl]butan-2-one] as the compound, how does the IC50 read?
Its IC50 is 12.6 nM.

How did the IC50 turn out when CCC(=O)Cn1cc(F)c2ncc(-c3ccc(F)c(F)c3)cc21 [Example 336, 1-[6-(3,4-Difluorophenyl)-3-fluoro-pyrrolo[3,2-b]pyridin-1-yl]butan-2-one] was run?
The IC50 was 20 nM.

How did the IC50 turn out when CCC(=O)Cn1cc(F)c2ncc(-c3cccc(C(F)F)c3)cc21 [Example 337, 1-[6-[3-(Difluoromethyl)phenyl]-3-fluoro-pyrrolo[3,2-b]pyridin-1-yl]butan-2-one] was run?
Its IC50 is 15.8 nM.

With CCC(=O)Cn1cc(F)c2ncc(-c3ccc(Cl)s3)cc21 [Example 338, 1-[6-(5-Chloro-2-thienyl)-3-fluoro-pyrrolo[3,2-b]pyridin-1-yl]butan-2-one] as the compound, how does the IC50 read?
Its IC50 is 15.8 nM.

How did the IC50 turn out when CCC(=O)Cn1cc(F)c2ncc(-c3cc(C)cs3)cc21 [Example 339, 1-[3-Fluoro-6-(4-methyl-2-thienyl)pyrrolo[3,2-b]pyridin-1-yl]butan-2-one] was run?
The IC50 was 12.6 nM.

Which pIC50 does the source give for CC(=O)CCn1ccc2ncc(-c3ccc(F)cc3)cc21 [Example 340, 4-[6-(4-Fluorophenyl)pyrrolo[3,2-b]pyridin-1-yl]butan-2-one] here?
Its pIC50 is 7.9.

How did the IC50 turn out when CC(C)C(=O)Cn1cc(F)c2ncc(-c3ccc(F)cc3)cc21 [Example 341, 1-[3-Fluoro-6-(4-fluorophenyl)pyrrolo[3,2-b]pyridin-1-yl]-3-methyl-butan-2-one] was run?
The IC50 was 1000 nM.

For CC(C)C(=O)Cn1cc(F)c2ncc(-c3cccc(C(F)F)c3)cc21 [Example 342, 1-[6-[3-(Difluoromethyl)phenyl]-3-fluoro-pyrrolo[3,2-b]pyridin-1-yl]-3-methyl-butan-2-one], which IC50 is on record?
Its IC50 is 50.1 nM.

Cc1csc(-c2cnc3c(F)cn(CC(=O)C(C)C)c3c2)c1 [Example 343, 1-[3-Fluoro-6-(4-methyl-2-thienyl)pyrrolo[3,2-b]pyridin-1-yl]-3-methyl-butan-2-one] was tested. Which IC50 did it give?
Its IC50 is 63.1 nM.

With CC(C)C(=O)Cn1cc(F)c2ncc(-c3cc(F)c(F)c(F)c3)cc21 [Example 344, 1-[3-Fluoro-6-(3,4,5-trifluorophenyl)pyrrolo[3,2-b]pyridin-1-yl]-3-methyl-butan-2-one] as the compound, how does the IC50 read?
The IC50 was 50.1 nM.

How did the IC50 turn out when CC(C)C(=O)Cn1cc(F)c2ncc(-c3ccc(Cl)s3)cc21 [Example 345, 1-[6-(5-Chloro-2-thienyl)-3-fluoro-pyrrolo[3,2-b]pyridin-1-yl]-3-methyl-butan-2-one] was run?
Its IC50 is 31.6 nM.

With Cc1cc(-c2cnc3ccn(CC(=O)N4CCOCC4)c3c2)ccc1F [Example 346, 2-[6-(4-Fluoro-3-methyl-phenyl)pyrrolo[3,2-b]pyridin-1-yl]-1-morpholino-ethanone] as the compound, how does the IC50 read?
Its IC50 is 39.8 nM.

For Cc1cc(-c2cnc3ccn(CC(=O)NC4CC4)c3c2)ccc1F [Example 348, N-Cyclopropyl-2-[6-(4-fluoro-3-methyl-phenyl)pyrrolo[3,2-b]pyridin-1-yl]acetamide], which IC50 is on record?
Its IC50 is 31.6 nM.

With O=C(Cn1ccc2ncc(-c3cc(F)cc(F)c3)cc21)NC1CC1 [Example 350, N-Cyclopropyl-2-[6-(3,5-difluorophenyl)pyrrolo[3,2-b]pyridin-1-yl]acetamide trifluoroacetate salt] as the compound, how does the IC50 read?
The IC50 was 15.8 nM.

How did the IC50 turn out when O=C(Cn1ccc2ncc(-c3cccc(C(F)(F)F)c3F)cc21)NC1CC1 [Example 352, N-Cyclopropyl-2-[6-[2-fluoro-3-(trifluoromethyl)phenyl]pyrrolo[3,2-b]pyridin-1-yl]acetamide trifluoroacetate salt] was run?
The IC50 was 39.8 nM.
